In one data set the target is T1, human Tie2 (Homo sapiens, UniProt Q02763).
T1 construct: corresponding to the intracellular domain amino acids 776-1124 was generated by PCR; made in house; host or cells: baculovirus expression vector pFastBacGT
Put plainly: phosphorylation of PLC by Tie2 (GST-Tie2), FlashPlate. Format: biochemical. Conditions: read-out: TIE2 IC 50. The method, then:
The human Tie2 coding sequence corresponding to the intracellular domain amino acids 776-1124 was generated by PCR using the cDNA isolated from human placenta as a model. This sequence was introduced into a baculovirus expression vector pFastBacGT in the form of a GST fusion protein.
The inhibitory effect of the molecules is determined in an assay for phosphorylation of PLC by Tie2 in the presence of GST-Tie2 purified to approximately 80% homogeneity. The substrate is made up of the SH2-SH3 fragments of PLC expressed in the form of a GST fusion protein.
The kinase activity of Tie2 is measured in a 20 mM MOPS buffer, pH 7.2, containing 10 mM MgCl2, 10 mM MnCl2, 1 mM DTT and 10 mM of glycerophosphate. A reaction mixture made up to 70 μl of kinase buffer containing 100 ng of GST-Tie2 enzyme is deposited into each well of a 96-well FlashPlate kept on ice. 10 μl of the test molecule diluted in DMSO at a maximum concentration of 10% are then added. For a given concentration, each measurement is determined in quadruplicate. The reaction is initiated by adding 20 μl of solution containing 2 μg of GST-PLC, 2 μM of cold ATP and 1 μCi of ^33P [ATP]. After incubation at 37° C. for 1 hour, the reaction is stopped by adding 1 volume (100 μl) of 200 mM EDTA. After the incubation buffer has been removed, the wells are washed three times with 300 μl of PBS. The radioactivity is measured on a Wallac MicroBeta 1450.
The inhibition of the Tie2 activity is calculated and expressed as percentage inhibition with respect to the control activity determined in the absence of compound.

The target in a further data set is T2, human KDR enzyme (Homo sapiens, UniProt P35968).
T2 construct: The cytoplasmic domain of the human KDR enzyme was cloned in the form of a GST fusion; GST; made in house; host or cells: SF21 insect cells (baculovirus, pFastBac)
T2 sequence (P35968 786-1356 limits assumed): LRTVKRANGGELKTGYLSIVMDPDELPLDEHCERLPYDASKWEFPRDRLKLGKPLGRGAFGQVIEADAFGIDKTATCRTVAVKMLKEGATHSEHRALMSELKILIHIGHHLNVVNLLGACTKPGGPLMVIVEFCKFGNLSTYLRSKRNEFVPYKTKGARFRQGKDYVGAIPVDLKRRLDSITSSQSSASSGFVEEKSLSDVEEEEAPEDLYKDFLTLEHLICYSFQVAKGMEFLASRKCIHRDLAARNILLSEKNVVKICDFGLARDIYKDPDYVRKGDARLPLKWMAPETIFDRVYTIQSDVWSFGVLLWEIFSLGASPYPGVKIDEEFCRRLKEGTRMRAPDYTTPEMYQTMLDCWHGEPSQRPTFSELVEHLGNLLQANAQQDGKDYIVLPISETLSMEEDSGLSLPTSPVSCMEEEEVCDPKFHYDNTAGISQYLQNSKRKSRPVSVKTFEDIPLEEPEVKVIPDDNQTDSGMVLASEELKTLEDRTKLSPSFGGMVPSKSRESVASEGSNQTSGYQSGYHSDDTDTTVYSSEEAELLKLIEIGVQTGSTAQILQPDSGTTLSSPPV
Put plainly: phosphorylation of substrate by the KDR enzyme in vitro, scintillation technique. Format: biochemical. Conditions: read-out: KDR IC 50. The procedure:
The inhibitory effect of the compounds is determined in an assay for phosphorylation of substrate by the KDR enzyme in vitro using a scintillation technique (96-well plate, NEN).
The cytoplasmic domain of the human KDR enzyme was cloned in the form of a GST fusion into the baculovirus expression vector pFastBac. The protein was expressed in SF21 cells and purified to approximately 60% homogeneity.
The kinase activity of KDR is measured in 20 mM MOPS, 10 mM MgCl2, 10 mM MnCl2, 1 mM DTT, 2.5 mM EGTA, 10 mM β-glycerophosphate, pH=7.2, in the presence of 10 mM MgCl2, 100 μM Na3VO4, 1 mM NaF. 10 μl of the compound are added to 70 μl of kinase buffer containing 100 ng of KDR enzyme at 4° C. The reaction is initiated by adding 20 μl of solution containing 2 μg of substrate (SH2-SH3 fragment of PLCγ expressed in the form of a GST fusion protein), 2 μCi γ ^33P[ATP] and 2 μM cold ATP. After incubation at 37° C. for 1 hour, the reaction is stopped by adding 1 volume (100 μl) of 200 mM EDTA. The incubation buffer is removed and the wells are washed three times with 300 μl of PBS. The radioactivity is measured in each well using a Top Count NXT radioactivity counter (Packard).
The background noise is determined by measuring the radioactivity in four different wells containing the radioactive ATP and the substrate alone.
A control for total activity is measured in four different wells containing all the reactants (γ^33P-[ATP], KDR and PLCY substrate) but in the absence of compound.
The inhibition of the KDR activity with the compound of the invention is expressed as percentage inhibition of the control activity determined in the absence of compound.
The compound SU5614 (Calbiochem) (1 μM) is included in each plate as an inhibition control.

A further data set addresses FAK (Homo sapiens, UniProt Q05397). Put plainly: FAK inhibition. Format: biochemical.

pIC50: −log10 of the molar value.

T1 sequence (Q02763 776-1124): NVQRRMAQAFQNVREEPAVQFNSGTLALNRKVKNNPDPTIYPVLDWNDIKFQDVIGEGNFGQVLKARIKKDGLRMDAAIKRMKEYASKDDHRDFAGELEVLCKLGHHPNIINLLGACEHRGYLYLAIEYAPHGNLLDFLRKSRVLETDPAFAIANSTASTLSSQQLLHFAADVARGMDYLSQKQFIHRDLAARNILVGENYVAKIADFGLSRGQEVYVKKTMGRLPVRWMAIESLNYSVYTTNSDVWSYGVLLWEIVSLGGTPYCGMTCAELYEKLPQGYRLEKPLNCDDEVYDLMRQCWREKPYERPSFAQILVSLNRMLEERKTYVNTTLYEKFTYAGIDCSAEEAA
Chain of FAK (Q05397 whole entry, species assumed): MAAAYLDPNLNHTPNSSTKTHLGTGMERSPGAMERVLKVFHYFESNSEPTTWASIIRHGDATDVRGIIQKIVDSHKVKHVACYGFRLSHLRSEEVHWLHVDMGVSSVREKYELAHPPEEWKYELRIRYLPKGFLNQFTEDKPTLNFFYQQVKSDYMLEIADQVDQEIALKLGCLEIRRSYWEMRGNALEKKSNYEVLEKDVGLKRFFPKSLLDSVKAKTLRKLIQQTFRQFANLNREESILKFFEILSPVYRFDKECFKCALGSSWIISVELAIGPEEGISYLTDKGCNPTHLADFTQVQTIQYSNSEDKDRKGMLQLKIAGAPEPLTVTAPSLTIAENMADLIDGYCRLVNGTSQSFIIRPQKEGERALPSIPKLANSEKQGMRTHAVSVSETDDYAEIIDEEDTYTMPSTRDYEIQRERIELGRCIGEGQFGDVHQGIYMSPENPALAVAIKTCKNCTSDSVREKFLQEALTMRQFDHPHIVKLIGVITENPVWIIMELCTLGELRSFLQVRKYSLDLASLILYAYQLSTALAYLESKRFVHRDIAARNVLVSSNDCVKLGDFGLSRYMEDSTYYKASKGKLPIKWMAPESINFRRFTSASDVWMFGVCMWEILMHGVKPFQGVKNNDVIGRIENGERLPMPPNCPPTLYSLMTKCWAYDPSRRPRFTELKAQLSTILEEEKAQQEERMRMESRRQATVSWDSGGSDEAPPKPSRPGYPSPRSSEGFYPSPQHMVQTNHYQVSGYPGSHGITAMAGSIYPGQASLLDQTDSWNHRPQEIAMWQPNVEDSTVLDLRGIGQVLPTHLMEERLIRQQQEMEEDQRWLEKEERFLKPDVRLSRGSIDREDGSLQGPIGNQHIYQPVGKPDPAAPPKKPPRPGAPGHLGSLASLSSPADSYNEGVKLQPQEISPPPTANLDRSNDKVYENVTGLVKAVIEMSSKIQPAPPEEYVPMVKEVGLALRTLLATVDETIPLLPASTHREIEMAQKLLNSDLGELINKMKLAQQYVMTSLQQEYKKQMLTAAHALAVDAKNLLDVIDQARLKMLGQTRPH

As for `Cn1c(C(N)=O)c(-c2ccc(NC(=O)Nc3cc(C(F)(F)F)ccc3F)cc2)c2ccccc21` [Example 8, 3-{4-[3-(2-Fluoro-5-trifluoromethylphenyl)-ureido]phenyl}-1-methyl-1H-indole-2-carboxamide], the melting point (commonly the temperature of the solid-liquid transition) is more than 260 °C. Besides, the pIC50 at human Tie2 is 7.57. The pIC50 on human KDR enzyme is 6.59.

Consider `CC(C)(C)c1cc(NC(=O)Nc2ccc(-c3c(C(N)=O)[nH]c4ccccc34)cc2)no1` [Example 10, 3-{4-[3-(5-tert-butylisoxazol-3-yl)ureido]-phenyl}-1H-indole-2-carboxamide], for which the melting point is 176 to 178 °C. Besides, at FAK, the pIC50 is 6.52. Further, the pIC50 at human Tie2 is 8.52. Besides, the pIC50 on human KDR enzyme was 7.43.
